Laboratory results: paper PMC8234864, “Early Effects of the Soluble Amyloid β25-35 Peptide in Rat Cortical Neurons: Modulation of Signal Transduction Mediated by Adenosine and Group I Metabotropic Glutamate Receptors” (International Journal of Molecular Sciences, 2021)
Where no end group is shown, it is not given here.

Tested on: mGluR1
Assay: Extracellular immunostaining of mGluR1 in non-permeabilized neurons
Format: cell-based, rat
Settings: 25 µM, 24 h, whole-cell immunostaining
Method: The quantitative analysis of the levels of Group I mGluR and mGluR2,3 at the plasma membrane was performed with extracellular targeted polyclonal antibodies (mGluR1, mGluR5 and mGluR2,3, Alomone Labs, Jerusalem, Israel), as previously described with minor modifications. Briefly, after 2 weeks in culture, the culture medium was removed and cells washed with Locke Buffer (LB, pH 7.4). Cells were then fixed with 4% paraformaldehyde for 10 min at room temperature and washed with three 10-min intervals with LB.
Nonspecific staining was suppressed by blocking with 3% normal goat serum in LB for 60 min. […]
To evaluate the degree of fluorescence intensity in cortical neurons, fluorescence was measured to estimate the protein expression in the different experimental conditions analyzed. Images (448.6 µm × 335.08 µm) obtained with a digital camera (Leica DFC350FX R2), attached to a Leica DMI6000B (Leica Microsystems, Wetzlar, Germany) fluorescent microscope, were used for quantification (20x HCX PL FLUOTAR 0.4 dry objective). […] Fluorescence intensity was estimated by averaging mean grey values. […] Data were normalized to the total number of cells in the analyzed fields. The mean fluorescence background, calculated in the unstained regions between neurons, was subtracted from the fluorescence intensity of each data point. […]

## GSNKGAIIGLM [Aβ25-35]
  mGluR1 density at the membrane level, increase over control value: more than 7 fold
